Reference: patent publication US8252764B2, “Compositions and methods of use of targeting peptides against placenta and adipose tissues” (priority 2000, dated 2012)
Peptide text beside a SMILES is read from it.

Experiments:
Aminopeptidase A (APA) = biological target: T1, Aminopeptidase A (APA) (Homo sapiens, UniProt Q07075); assay: APA enzyme assay; format: biochemical
T1 construct: transfected with an expression vector encoding full-length APA cDNA; expressed in transfected cells; host or cells: SK-RC-49 renal carcinoma cells, stably transfected (SK-RC-49/APA)

HUVECs [1] = assay: Three-dimensional cell culture on Matrigel; format: cell-based, human; details: HUVECs on three-dimensional matrix gel, not shown
Procedure: Matrigel (Collaborative Research, Bedford, Mass.) was added at 100 μl per well to 48-well tissue culture plates and allowed to solidify for 10 min at 37° C. HUVECs were starved for 24 h in M199 medium supplemented with 2% FCS before being harvested in PBS containing 2.5 mM EDTA. 10^4 cells were gently added to each of the triplicate wells and allowed to adhere to the gel coating for 30 min at 37° C. Then, medium was replaced with indicated concentrations of […] (SEQ ID NO:56) or […] (SEQ ID NO:57) peptides in complete medium. The plates were photographed after 24 h with an inverted microscope (Canon). The assay was repeated three times.

aminopeptidase N = aminopeptidase N (Homo sapiens, UniProt P15144); assay: Aminopeptidase N activity; format: biochemical; details: data not shown
SK-RC-49/APA cells = assay: Phage binding specificity assay on SK-RC-49/APA cells; format: cell-based; details: soluble peptide
Procedure: The cell binding assay was performed with an input of 10^9 TU as described for the cell panning. The specificity was confirmed by adding […] (SEQ ID NO:56) peptide to the binding medium in increasing concentrations. For phage binding on immunocaptured APA, wells were blocked for 1 h at room temperature with PBS/3% BSA and incubated with 10^9 TU for 1 h at room temperature in 50 μl PBS/3% BSA. After eight washes in PBS/1% BSA/0.01% Tween-20 and two washes in PBS, phage were rescued by adding 200 μl of exponentially growing K91Kan E. coli. Each experiment was repeated at least three times.

[2] = system: chicken chorioallantoic membrane (CAM); assay: CAM assay for angiogenesis; format: in vivo
Procedure: In vivo angiogenesis was evaluated by a CAM assay (Ribatti et al., 1994). Fertilized eggs from White Leghorn chickens were maintained in constant humidity at 37° C. On the third day of incubation, a square window was opened in the eggshell and 2-3 ml of albumen was removed to detach the developing CAM from the shell. The window was sealed with a glass plate of the same size and the eggs were returned to the incubator. At day 8, 1 mm^3 sterilized gelatin sponges (Gelfoam, Upjohn Co, Kalamazoo, […]) were adsorbed with VEGF-A (20 ng, R&D System) and either […] (SEQ ID NO:56) or control […] (SEQ ID NO:57) peptide (1 mM) in 3 μl PBS and implanted on the top of the growing CAMs under sterile conditions. CAMs were examined daily until day 12 and photographed in ovo with a Leica stereomicroscope. Capillaries emerging from the sponge were counted. The assay was repeated twice.

HUVECs [3] = assay: HUVEC cell growth assay (crystal violet); format: cell-based, human; details: 1 mM, VEGF-A (10 ng/ml)
Procedure: FIG. 34. […] (SEQ ID NO:56) inhibits HUVEC proliferation. Cells were stimulated with VEGF-A (10 ng/ml), and growth was evaluated at the indicated times by a colorimetric assay based on crystal violet staining. Error bars are the standard error of the means of triplicate wells. Each experiment was repeated at least twice with similar results.
HUVECs were seeded in 48-well plates (10^4 cells/well) and allowed to attach for 24 h in complete M199 medium. The cells were then starved in M199 medium containing 2% FCS for 24 h. […] (SEQ ID NO:56) or control […] (SEQ ID NO:57) peptide (1 mM) was added to the wells in medium containing 2% FCS and 10 ng/ml VEGF-A (R&D System, Abingdom, UK). After incubation for the indicated times, cells were fixed in 2.5% glutaraldehyde, stained with 0.1% crystal violet in 20% methanol, and solubilized in 10% acetic acid. All treatments were done in triplicate. Cell growth was evaluated by measuring the O.D. at 590 nm in a microplate reader (Bio-Rad Laboratories, Hercules, Calif.). A calibration curve was established and a linear correlation between O.D. and cell counts was observed between 10^3 and 10^5 cells.

HUVECs [4] = assay: HUVEC chemotaxis assay (Boyden chamber); format: cell-based, human; details: 1 mM, VEGF-A (10 ng/ml), Boyden chamber
Procedure: FIG. 33. […] (SEQ ID NO:56) inhibits HUVEC migration. HUVECs were stimulated with VEGF-A (10 ng/ml). The assay was performed in a Boyden microchemotaxis chamber, and cells were allowed to migrate through an 8-μm pore filter for 5 h at 37° C. […] (SEQ ID NO:57) (control) and […] (SEQ ID NO:56) peptides were tested at 1 mM concentration. Migrated cells were stained and five high-power fields (magnitude 100×) for each microwell were counted. Error bars are the standard error of the means of triplicate microwells.
A cell migration assay was performed in a 48-well microchemotaxis chamber (NeuroProbe, Gaithersburg, Md.) according to Bussolini et al. (1995). Polyvinylpyrrolidone-free polycarbonate filters (Nucleopore, Cambridge, Mass.) with 8-μm pores were coated with 1% gelatin for 10 min at room temperature and equilibrated in M199 medium supplemented with 2% FCS. […] (SEQ ID NO:56) or control […] (SEQ ID NO:57) peptide (1 mM) was placed in the lower compartment of a Boyden chamber in M199 medium supplemented with 2% FCS and 10 ng/ml VEGF-A (R&D System). Subconfluent cultures that had been starved overnight were harvested in PBS containing 2.5 mM EDTA, washed once in PBS, and resuspended in M199 medium containing 2% FCS at a final concentration of 2×10^6 cells/ml. […] Five random high-power fields (magnitude 100×) were counted in each well. […]

T1 sequence (Q07075 whole entry): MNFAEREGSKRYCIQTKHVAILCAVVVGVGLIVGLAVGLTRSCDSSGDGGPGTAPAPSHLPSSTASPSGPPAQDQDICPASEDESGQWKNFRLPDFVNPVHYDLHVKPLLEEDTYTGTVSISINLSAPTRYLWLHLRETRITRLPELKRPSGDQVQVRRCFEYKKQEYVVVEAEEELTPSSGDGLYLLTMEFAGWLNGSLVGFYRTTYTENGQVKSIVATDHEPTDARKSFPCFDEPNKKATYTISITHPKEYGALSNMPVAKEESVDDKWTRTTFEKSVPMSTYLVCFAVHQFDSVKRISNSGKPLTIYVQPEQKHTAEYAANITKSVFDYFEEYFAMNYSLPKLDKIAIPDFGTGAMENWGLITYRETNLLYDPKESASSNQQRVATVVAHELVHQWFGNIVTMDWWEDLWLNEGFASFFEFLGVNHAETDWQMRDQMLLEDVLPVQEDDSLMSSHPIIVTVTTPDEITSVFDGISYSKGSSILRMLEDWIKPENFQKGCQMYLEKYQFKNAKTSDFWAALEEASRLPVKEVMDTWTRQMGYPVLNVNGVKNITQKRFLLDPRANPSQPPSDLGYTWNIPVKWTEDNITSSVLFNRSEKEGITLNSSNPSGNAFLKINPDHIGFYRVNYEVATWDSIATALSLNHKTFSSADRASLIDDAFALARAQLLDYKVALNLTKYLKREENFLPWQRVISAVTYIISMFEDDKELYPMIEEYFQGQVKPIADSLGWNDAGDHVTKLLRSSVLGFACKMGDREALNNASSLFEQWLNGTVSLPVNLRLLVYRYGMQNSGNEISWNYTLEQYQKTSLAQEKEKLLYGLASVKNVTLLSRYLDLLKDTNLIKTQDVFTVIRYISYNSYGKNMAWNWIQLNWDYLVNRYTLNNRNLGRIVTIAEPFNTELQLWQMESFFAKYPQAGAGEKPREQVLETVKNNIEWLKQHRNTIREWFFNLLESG
Sequence of aminopeptidase N (P15144 whole entry, species assumed): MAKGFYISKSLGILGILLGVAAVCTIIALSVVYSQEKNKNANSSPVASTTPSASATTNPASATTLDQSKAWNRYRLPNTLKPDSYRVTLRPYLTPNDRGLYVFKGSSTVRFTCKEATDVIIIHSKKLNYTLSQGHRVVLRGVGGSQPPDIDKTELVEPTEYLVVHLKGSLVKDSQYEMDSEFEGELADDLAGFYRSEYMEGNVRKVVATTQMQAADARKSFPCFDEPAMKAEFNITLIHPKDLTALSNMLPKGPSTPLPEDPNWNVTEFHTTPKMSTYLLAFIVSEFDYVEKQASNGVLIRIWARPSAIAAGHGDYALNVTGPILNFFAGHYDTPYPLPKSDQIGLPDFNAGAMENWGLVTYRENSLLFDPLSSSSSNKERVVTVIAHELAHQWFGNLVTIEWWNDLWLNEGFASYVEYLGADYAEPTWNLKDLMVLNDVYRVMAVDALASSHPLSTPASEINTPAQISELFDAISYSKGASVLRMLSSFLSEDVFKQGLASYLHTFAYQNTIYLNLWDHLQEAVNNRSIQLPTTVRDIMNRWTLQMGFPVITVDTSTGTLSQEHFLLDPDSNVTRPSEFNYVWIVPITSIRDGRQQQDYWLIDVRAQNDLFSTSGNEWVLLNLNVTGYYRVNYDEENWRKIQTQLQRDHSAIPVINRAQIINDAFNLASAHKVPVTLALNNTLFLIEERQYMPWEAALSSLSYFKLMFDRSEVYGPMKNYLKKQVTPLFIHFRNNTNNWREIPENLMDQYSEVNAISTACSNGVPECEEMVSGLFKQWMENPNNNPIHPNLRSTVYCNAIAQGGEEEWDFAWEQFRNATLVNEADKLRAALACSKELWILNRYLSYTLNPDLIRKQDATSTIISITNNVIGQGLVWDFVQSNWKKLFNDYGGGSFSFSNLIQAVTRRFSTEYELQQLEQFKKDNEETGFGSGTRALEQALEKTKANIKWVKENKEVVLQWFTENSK

CC[C@H](C)[C@H](NC(=O)[C@H](CO)NC(=O)[C@H](CCC(=O)O)NC(=O)[C@H](CS)NC(=O)[C@H](CCC(=O)O)NC(=O)[C@H](CCCNC(=N)N)NC(=O)[C@@H]1CCCN1C(=O)[C@@H](N)CS)C(=O)N[C@@H](CS)C(=O)O (H-CPRECESIC-OH)
IC50 (Aminopeptidase A (APA); SK-RC-49/APA cells, α-glutamyl-p-nitroanilide, 2 h at 37° C., read-out: IC50 for APA enzyme inhibition): 800 µM | reduction of APA enzyme activity (Aminopeptidase A (APA); at the highest concentration tested): 60% | formation of capillary-like network (HUVECs [1]): progressive impairment of the formation of this network | effect on aminopeptidase N activity (aminopeptidase N): did not affect the activity | effect on binding of CYNLCIRECESICGADGACWTWCADGCSRSC phage (SK-RC-49/APA cells; data not shown): displaced | competition with CPKVCPRECESNC phage for binding to SK-RC-49/APA cells (SK-RC-49/APA cells; not shown): competed | inhibition of neovascularization induced by VEGF-A ([2]; 1 mM, number of capillaries emerging from the sponge): 40% | BLOOD VESSEL NUMBERS ([2]; VEGF-A 20 ng, peptide 1 mM, mean and standard error, two experiments): 5.5 ± 1.41 | inhibition of cell proliferation (HUVECs [3]): 50% | inhibition of chemotaxis of HUVECs (HUVECs [4]): 70%
